From patent publication US4470926A, “Medicaments containing thymosin alpha 1 fragments and having an immunostimulant action, and fragments of thymosin alpha 1” (priority 1980, dated 1984)
Like-named read-outs stand apart in the source and are kept apart here. Residues, ends and D or L forms follow the SMILES beside them. No end group written: not given here.

Tests used:
[1] = tested on: human peripheral lymphocytes; format: cell-based; details: for Optimum concentr.: concentration of optimum E-rosette stimulation after α-amanitin block; for Relative number of the E-rosettes (%): after inhibition with α-amanitin
Text: The immunological test methods used were the E-rosette test according to Wara, Ammann et al. (N.Y. Acad. Sci. 249 (1975) 308 and N. Engl. J. Med. 292 (1975) 70) and the method of mixed lymphocyte culture, both methods involving additional inhibition of cellular RNS polymerase by alpha-amanitin. The E-rosette test is based on the fact that the percentage of E-rosette forming cells in peripheral human blood is a measure of the content of fully mature T-cells, which form with sheep's red blood cells characteristic aggregates which can be counted under the microscope.
For the performance of the E-rosette test, peripheral human lymphocytes are isolated by a gradient centrifugation. Their RNS polymerase is blocked by alpha-amanitin. […] This value is taken as 100% in a relative numerical scale, and after the alpha-amanitin blockage it is taken to be 0%; see Table XII.

[2] = tested on: human peripheral lymphocytes; format: cell-based; details: for stimulation (+) / inhibition (-) (%) of the mixed lymphocyte culture: 1 μg fragment per ml; for (%) Stimulation of allogenic mixed culture: 1 microgram thymosin α1 per ml
Method: The test in mixed lymphocyte cultures is based on the fact that T-cells are made to proliferate by stimulation with allogenic antigens. For the performance of the test, the lymphocytes of donor A ("responder") are incubated with those of donor B ("stimulator") for 4 to 5 days. Then ^3 H-thymidin is added and the rate of proliferation is measured on the basis of the increasing radioactivity of the cell culture due to the installation of the radioactive material. Since both populations A and B might be made to proliferate, resulting in an unclear effect, population B is blocked with mitomycin C in all metabolical activities. This test is routinely used before organ transplants to determine the immunological compatibility of donor and receiver tissues.

[3] = after α-amanitin block (=0%), normal level without any addition = 100%, at optimum concentration
[4] = cell pair AB, culture blocked with 1 μg α-amanitin per ml
[5] = cell pair AB, not blocked with amanitin, culture without addition = 0%
[6] = cell pair BA, culture blocked with 1 μg α-amanitin per ml
[7] = cell pair CD, not blocked with amanitin, culture without addition = 0%
[8] = cell pair DC, not blocked with amanitin, culture without addition = 0%
[9] = cell pair CD, culture blocked with 1 μg α-amanitin per ml
[10] = cell pair DC, culture blocked with 1 μg α-amanitin per ml
[11] = cell pair BA, not blocked with amanitin, culture without addition = 0%

Compound | activity in the E-rosette test (in words) [1] | E-rosette number (%) [1, 3] | Optimum concentr. [1] | action in the mixed lymphocyte culture (in words) [2] | stimulation (+) / inhibition (-) (%) of the mixed lymphocyte culture [2, 4] | stimulation (+) / inhibition (-) (%) of the mixed lymphocyte culture [2, 5] | stimulation (+) / inhibition (-) (%) of the mixed lymphocyte culture [2, 6] | stimulation (+) / inhibition (-) (%) of the mixed lymphocyte culture [2, 7] | stimulation (+) / inhibition (-) (%) of the mixed lymphocyte culture [2, 8] | stimulation (+) / inhibition (-) (%) of the mixed lymphocyte culture [2, 9] | stimulation (+) / inhibition (-) (%) of the mixed lymphocyte culture [2, 10] | also measured
C[C@H](NC(=O)[C@@H](N)CCC(=O)O)C(=O)N[C@@H](CCC(=O)O)C(=O)N[C@@H](CC(N)=O)C(=O)O [V] (H-EAEN-OH) | activity in the E-rosette test only at a relatively high dosage | 42% | 113 µM | very considerable stimulation of T-cell proliferation | -47% | +223% | -94% | +45% | +37% |  |  | 
Ac-SDAAVDTSSEIT [IX] | more strongly stimulated | 40% | 4 µM | surprisingly pronounced inhibiting action | -30% | -74% | -78% | -63% | -77% | +63% | +60% | 
KDAAVD [Ia] | especially active | 93% | 16 µM | surprisingly pronounced inhibiting action | -10% | -8% |  | -73% | -31% | -53% | -7% | stimulation (+) / inhibition (-) (%) of the mixed lymphocyte culture [2, 11]: -15%
KEVVE [IV] | activity in the E-rosette test only at a relatively high dosage | 45% | 83 µM | very considerable stimulation of T-cell proliferation | -87% | -53% | -97% | +37% | +2% | +35% | +100% | 
KEVVEEAEN [VI] |  | 16% | 10 µM |  | +279% | +153% | -96% | +57% |  | +83% | +160% | 
Synthetic thymosin α1: parent substance, totally synthetic thymosin α1, 28 amino acids, analytically pure (SDAAVDTSSEITTKDLKEKKEVVEEAEN; ends and bridges not checked; UniProt P06454 2-29, looked up) [reference compound] |  | 100% | 1.6 µM |  |  |  |  |  |  |  |  | Relative number of the E-rosettes (%) ([1]; 0.25 μg per culture): 39%; Relative number of the E-rosettes (%) ([1]; 0.50 μg per culture): 100%; Relative number of the E-rosettes (%) ([1]; 1.00 μg per culture): 64%; Relative number of the E-rosettes (%) ([1]; 2.50 μg per culture): 57%; Relative number of the E-rosettes (%) ([1]; 5.00 μg per culture): 33%; (%) Stimulation of allogenic mixed culture ([2]; cell pair AB, (a) culture not inhibited, without addition = 0%): +20%; (%) Stimulation of allogenic mixed culture ([2]; cell pair AB, (b) culture inhibited with 1 microgram amanitin per ml): +86%; (%) Stimulation of allogenic mixed culture ([2]; cell pair AD, (a) culture not inhibited): +4%; (%) Stimulation of allogenic mixed culture ([2]; cell pair AD, (b) culture inhibited with 1 microgram amanitin per ml): +37%; (%) Stimulation of allogenic mixed culture ([2]; cell pair BA, (a) culture not inhibited): +27%; (%) Stimulation of allogenic mixed culture ([2]; cell pair BA, (b) culture inhibited with 1 microgram amanitin per ml): +47%; (%) Stimulation of allogenic mixed culture ([2]; cell pair BD, (a) culture not inhibited): +45%; (%) Stimulation of allogenic mixed culture ([2]; cell pair BD, (b) culture inhibited with 1 microgram amanitin per ml): +51%; (%) Stimulation of allogenic mixed culture ([2]; cell pair DA, (a) culture not inhibited): +44%; (%) Stimulation of allogenic mixed culture ([2]; cell pair DB, (a) culture not inhibited): +27%; (%) Stimulation of allogenic mixed culture ([2]; cell pair DB, (b) culture inhibited with 1 microgram amanitin per ml): +1550%
TKDLKEKKEVVEEAEN [VII] | more strongly stimulated |  | 6 µM |  |  |  |  |  |  |  |  | E-rosette number (%) [1]: 41%
TSSEIT [II] |  | 29% | 80 µM |  | -11% |  | -80% | -53% | +30% | -98% | +20% | stimulation (+) / inhibition (-) (%) of the mixed lymphocyte culture [2, 11]: -18%
